Experimental findings from US20220142948A1, “COMPOSITIONS AND METHODS FOR MODULATING METABOLIC REGULATORS OF T CELL PATHOGENICITY” (The Broad Institute, Inc., priority 2019, published 2022) are described below.

Assay [1] relates to Th17 cells (Th17n, Th17p). The assay can be described thus: qPCR of in vitro differentiated T cells. It counts as cell-based, mouse. As for the experimental part:
qPCR. RNA was isolated using RNeasy Plus Mini Kit (Qiagen) and reverse transcribed to cDNA with iScript cDNA Synthesis Kit (Bio-Rad). Gene expression was analyzed by quantitative real-time PCR on a ViiA7 System (Thermo Fisher Scientific) using TaqMan Fast
Advanced Master Mix (Thermo Fisher Scientific) with the following primer/probe sets: Il-17a (Mm00439618_m1), Il-17f (Mm00521423_m1), Foxp3 (Mm00475162_m1), Tead1 (Mm00493507_m1), Taz (Mm00504978_m1), Sat1 (Mm00485911_g1) and Actb (Applied Biosystems). Expression values were calculated relative to Actb detected in the same sample by duplex qPCR.
qPCR. RNA was isolated using RNeasy Plus Mini Kit (Qiagen) and reverse transcribed to cDNA with iScript cDNA Synthesis Kit (Bio-Rad). Gene expression was analyzed by quantitative real-time PCR on a ViiA7 System (Thermo Fisher Scientific) using TaqMan Fast Advanced Master Mix (Thermo Fisher Scientific) with the following primer/probe sets: Ass1 (Mm00711256_m1), Odc1 (Mm02019269_g1), Sat1 (Mm00485911_g1), Srm (Mm00726089_s1), Sms (Mm00786246_s1), Il-17a (Mm00439618_m1), Il-17f (Mm00521423_m1), Foxp3 (Mm00475162_m1), Tead1 (Mm00493507_m1), Taz (Mm00504978_m1), and Actb (Applied Biosystems). Expression values were calculated relative to Actb detected in the same sample by duplex qPCR.
Background: Real-time PCR tracks product formation cycle by cycle.

For assay [2], the system named is cellular polyamines in Th17p, Th17n and iTregs. As to the kind of experiment: Total cellular polyamine content (enzymatic assay, Total Polyamine Assay Kit). In kind it is cell-based, mouse. From the text:
Polyamine ELISA. Cell pellets of in vitro differentiated cells were frozen down and further processed with the Total Polyamine Assay Kit (BioVision Inc.) according to the manufacturer's instructions.

For assay [3], the system named is Th17n, Th17p and iTreg cells. The assay can be described thus: Population (bulk) RNA-seq of in vitro differentiated T cells. It counts as cell-based, mouse. Here is the method: (§1) RNA-seq. For population (bulk) RNA-seq, in vitro differentiated T-cells were sorted for live cells and lysed with RLT Plus buffer and RNA was extracted using the RNeasy Plus Mini Kit (Qiagen). Full-length RNA-seq libraries were prepared as previously described and paired-end sequenced (75 bp×2) with a 150 cycle Nextseq 500 high output V2 kit.
Bulk RNA-Seq and SMART-Seq2 analysis. Applicants aligned single-cell SMART-Seq2 libraries with Bowtie2, quantified TPM gene expression with RSEM, and performed QC as Applicants described in detail in a previous publication^51. This computational pipeline is a massively revised and updated version of the one originally used to analyze these libraries^19. Batch effects and other nuisance factors were normalized with a model chosen empirically with SCONE ^52. Bulk RNA-Seq were processed with a modified variant of the same pipeline. In the absence of UMIs, differentially expressed genes were called through a linear model fitted to TPM values with the limma R package and with a mean-variance trend added to the empirical bayes prior^53,54.
as §1
Bulk RNA libraries from DFMO- or vehicle-treated Th17p, Th17n, or Treg were studied with 3 replicates per condition for a total of 18 libraries as shown in FIG. 36A. Genes that are associated with a Th17 or Treg programs (orange and purple, respectively, in FIG. 36B-C) were determined by differential expression test between bulk RNA libraries of (vehicle-treated) Th17n and Th17p on one side and Treg on the other with BH-adjusted p<0.05 and absolute value of log 2 fold-change of at least 1.5. Genes associated with the Th17p or Th17n program (magenta and green, respectively, in FIG. 40A) were determined by differential expression test between bulk RNA libraries of (vehicle-treated) Th17p vs. Th17n with the same thresholds. The PCA shown in FIG. 36A was computed on the set of 3,414 that were differentially associated with Th17, Treg, Th17p, or Th17n programs by the aforementioned criteria to focus it on the subspace of the transcriptome relevant to Th17 pathogenicity phenotypes.
Applicants aligned single-cell SMART-Seq libraries with Bowtie2, quantified TPM gene expression with RSEM, and performed QC as Applicants described in detail in a previous publication (Fletcher et al., 2017). This computational pipeline is a massively revised and updated version of the one originally used to analyze these libraries (Gaublomme et al., 2015). Batch effects and other nuisance factors were normalized with a model chosen empirically with SCONE (Cole et al., 2019). Bulk RNA-Seq were processed with a modified variant of the same pipeline.
For the Smart-Seq libraries, due the absence of UMIs in the dataset, differentially expressed genes were called through a linear model _tted to TPM values with the limma R package and with a mean-variance trend added to the empirical Bayes prior (Ritchie et al., 2015). For the bulk RNA libraries, differentially expressed genes were called with limma-trend or limma-voom (Law et al., 2014) depending on the variance of library sizes, as recommended in the limma package manual (Smyth, 2019).

Assay [4] relates to experimental autoimmune encephalomyelitis (EAE). The assay can be described thus: Active EAE (MOG35-55/CFA immunization) with DFMO in drinking water. It counts as in vivo, mouse. Here is the method:
Experimental Autoimmune Encephalomyelitis (EAE). […] Equivalent of 40 μg MOG peptide was injected per mouse subcutaneously followed by pertussis toxin injection intravenously on day 0 and day 2 of immunization. Mice were treated with 0.5% DFMO in drinking water for 10 days as indicated. DFMO was replenished every third day.
Experimental Autoimmune Encephalomyelitis (EAE). […] Equivalent of 40 μg MOG peptide was injected per mouse subcutaneously followed by pertussis toxin injection intravenously on day 0 and day 2 of immunization. Mice were monitored and assigned grades for clinical signs of EAE using the following scoring system: 0, healthy; 1, limp tail; 2, impaired righting reflex or ataxic gait; 3, hind limb paralysis; 4, total limb paralysis; 5, moribund or death. Mice with a score of >4 were euthanized. If mice died during the course of the experiment, their clinical score of 5 was included in the analysis for the remainder of the experiment.

Where [5] appears, read: non-pathogenic and pathogenic Th17 cells.

Entries after “also recorded” stand apart in the source; their conditions may differ.

As to `NCCC[C@](N)(C(=O)O)C(F)F` [DFMO, 2-(difluoromethyl)ornithine], the Ass1 expression result in assay [1] is recorded as “specifically suppresses”. For the same molecule, the “IL-17 (quantitative real time PCR)” value in assay [1] (CD4 T cells) is “decreased”. For the same molecule, the SAT1 expression entry in assay [1] (T cells, Th17n and Th17p) is reported as “reduces the expression; also recorded: decrease; also recorded: specifically suppresses; also recorded: decreases expression; also recorded: consistently suppressed”. In assay [1] (setting [5]), the “relative expression of Foxp3” value was “increase”, the “relative expression of IL17A” value is “decrease” and the “relative expression of IL17F” value is “decrease”. The SAT1 expression entry in assay [1] (pathogenic Th17 cells) is “decreased expression”. In assay [2] (Th17n cells), the polyamine concentration result is listed as “decrease; also recorded: suppression of polyamines”. In assay [2] (Th17p cells), the polyamine concentration entry is “decrease; also recorded: suppression of polyamines”. Moreover, the polyamine concentration result in assay [2] (iTregs) is “decrease; also recorded: suppression of polyamines”. Further, in assay [3], the “expression of chromatin modifiers / chromatin associated genes” value is reported as “alters chromatin associated genes; also recorded: significant changes”; the “genes shared / expressed comparably between Th17 and Treg cells” value is on record as “do not change; also recorded: no significant effect”. Also, the “transcriptome shift (principal component analysis)” value in assay [3] (Th17 and iTreg cells) is listed as “shift Th17 cells to Treg-like transcriptome; also recorded: shift the cells towards Treg gene expression; also recorded: clearly driving cells towards Treg cells; also recorded: driving Th17 cells towards Treg cell profiles; also recorded: promotes Treg-like transcriptome”. In assay [3] (Th17 cells), the Foxp3 entry is “upregulated”, the Il17a result is on record as “significantly suppressed”, the Il17f result is “significantly suppressed” and the Il23r result was “significantly suppressed”. In assay [3] (Th17n and Th17p cells), the “Th17 specific genes / transcriptome” value is listed as “reducing canonical Th17 genes; also recorded: shift Th17 specific genes down; also recorded: suppressed” and the “Treg specific genes / transcriptome” value is “shift Treg specific genes up; also recorded: promoted”. In assay [3] (Th17p cells), the “proinflammatory state genes (upregulated in Th17p)” value is listed as “downregulation” and the “regulatory state genes (upregulated in Th17n)” value is recorded as “significant upregulation”. The “EAE clinical score, onset and severity” value in assay [4] (0.5% DFMO in drinking water for 10 days) is “effective in reducing EAE; also recorded: decreases the EAE score; also recorded: delays EAE onset; also recorded: significantly delayed the onset and severity of EAE; also recorded: significant impact in curtailing EAE”. In assay [4] (lymphocytes isolated from CNS), the “Foxp3+CD4+ T cells (Tregs)” value is listed as “promotes Tregs; also recorded: increased frequency” and the “frequency of cytokine producing cells” value was “no difference”.

For epigallocatechin-3-gallate [EGCG], in assay [3] (Th17n), the CASP1 entry is recorded as “up-regulated; also recorded: upregulating”, the IKZF3 entry is “downregulated; also recorded: downregulating”, the IL7R entry is given as “up-regulated; also recorded: upregulating” and the IL22 result is “up-regulated; also recorded: upregulating”. In assay [3] (Th17n cells), the “pro-pathogenic transcriptional program / module” value is listed as “promotes the pro-pathogenic module; also recorded: clearly strengthened” and the pro-regulatory module result is “suppresses the pro-regulatory module”. Besides, in assay [3] (bulk RNA-Seq of d1 Th17n and Th17p cells), the “position on PC1 (pathogenicity phenotype)” value is reported as “toward a more pathogenic one; also recorded: shifted cell profiles towards a more pathogenic state”.
